Data set [1] relates to PKAcα. The arrangement: method as in PMID 17125267. Conditions: cited from earlier work.
Data set [2] can be described thus: HPLC-MS analysis of the fragmentation of ARC-2121 and ARC-2194. Format: physicochemical. Conditions: TCEP 1 mM, pH 7.5, 30 °C. Here is the method:
At fixed time points (1, 10, 30, 60, and 120 min), 10 µL of the solution (corresponding to 1 nmol of the substrate) was injected into the RP-HPLC column.
ARC-2121 (200 µM) was dissolved in H2O:MeCN (10:1). ARC-2121 (200 µM, 20 µL) was irradiated for a fixed time (15, 30, 60, 90, and 120 s) inside a microtiter plate at room temperature (rt) using the custom-made 365 nm LED array (Figure S2). Then, 9 µL (1.7 nmol) of the solution was injected into the RP-HPLC column.

Data set [3] concerns PKAcα. The data set is described as follows: Estimated dynamic range of enzyme activity change upon deactivation (Equations 2, 3). Conditions: estimated from change of KD app / IC50 upon deactivation. The source says:
In general, deactivation of an inhibitor can be observed by a shift of a dose-response curve in a biochemical assay, which is caused by the increase of IC50 value from IC50^ON (the IC50 of the active inhibitor) to IC50^OFF (the IC50 of the deactivated inhibitor). The fraction of the active enzyme before and after applying the trigger depends on the initial concentration of the deactivatable inhibitor. If the sigmoidal dose–response model describes the concentration dependencies of the inhibition before and after applying the stimulus, the biggest change of the fraction of the active enzyme in the solution is observed at the concentration of the inhibitor Iopt whose logarithm is the average of the corresponding logIC50 values (Equation (2)):(2) logIopt=1/2logIC50ON+logIC50OFF
The ratio of fractions of active enzyme after (a^maxopt) and before (a^minopt) deactivation of the inhibitor (i.e., the on/off ratio of the activity of the enzyme) is determined by the square root of the ratio of the corresponding IC50 values (Equation (3)):(3) aoptmax/aoptmin=IC50OFF/IC50ON^1/2
Thus, the larger the difference between IC50^ON and IC50^OFF values is (ΔIC50), the higher the dynamic range of activity change (Δaopt = a^maxopt − a^minopt) of the enzyme is. […]

The target of data set [4] is T1, PKAcα (Homo sapiens, UniProt P17612). The data set is described as follows: FA-based competitive binding/displacement assay (probe ARC-583). Conditions: for influence of TCEP on the displacement curve: FA assay, TCEP 1 mM.
Description: (§1) In the present work, photoluminescence-based competitive equilibrium binding assay was used to establish the KD and KD^app values of the novel compounds as determined before and after fragmentation, respectively. […] Two assay formats were used, which were designed for the determination of KD values of high-affinity bivalent inhibitors and the mixtures of their low-affinity fragments, respectively.
A typical assay setup based on the measurement of FA utilizes concentrations of the fluorescence probes slightly below the concentration of the target protein but higher than the KD^* to achieve maximal Δr. The assay in the present work was conducted at 2 nM ARC-583 and 3 nM PKAcα. […] Thus, the KD values for low-affinity compounds can be reliably established with this FA-based assay format.
The fluorescence intensity (FI), fluorescence anisotropy (FA), and time gated photoluminescence intensity (TGLI) measurements were performed with a PHERAstar (BMG Labtech) microplate reader. The FI and FA measurements of the photoluminescent probe ARC-583 were performed with FP optical module [EX 540(50) nm, EM 590(50) nm]. The detector was adjusted with solution of the free probe ARC-583 (in the absence of PKAcα). […] The TGLI measurements of photoluminescent probes ARC-1182 and ARC-1063 were performed with HTRF optical module (EX 330(50) nm, EM 675(50) nm). The TGLI was recorded for 200 µs after 60 µs delay from the flash-excitation.
Upon arrival, the stock solution of PKAcα was divided into batches and stored at −80 °C. After removal from a freezer at −80 °C, the batches of PKAcα were stored at 0 °C in an ice box until consumed, to avoid repetitive freeze-thaw cycles.
The microplates were incubated for 30 min at 30 °C before measurements. The measurements were repeated after 60 min to verify that the reactions had reached the equilibrium. […] Formation of the complex was observed by the change of FA and the concentration of PKAcα was calculated as previously described [40, 42]. […] First, the solutions were incubated for 30 min at 30 °C, thereafter the FA or TGLI signals were measured. Then, the stock solution of TCEP (1 µL) was added to all wells to the final concentration of 1 mM. The microplates were then incubated for an additional 30 min at 30 °C and the FA or TGLI signals were measured in the presence of TCEP. All experiments were carried out in at least two replicates (n ≥ 2) and the reported errors are the standard errors of the mean.
The anisotropy change (Δr) with respect to the anisotropy of free photoluminescent probe ARC-583 and the TGLI of the photoluminescent probes ARC-1182 and ARC-1063 were plotted as functions of log[I]T, where [I]T corresponds to the total concentration of the ‘dark’ ligand/inhibitor that competes with the probe for the binding to the catalytic subunit of PK ([I]T = [I] + [PK:I], where [I] and [PK:I] correspond to the equilibrium concentrations of unbound I and PK:I complex, respectively).
Data set [5] deals with PKAcα. Conditions: cited from earlier work.
In data set [6] the target is T1, PKAcα.
Description: as §1
The first assay was based on the measurement of the time-gated photoluminescence signal intensity (TGLI) and it utilized ARC-Lum(Fluo) probes ARC-1063 or ARC-1182, which both emit long life-time photoluminescence signal when associated with a target PK [38]. ARC-1063 and ARC-1182 differ by the fluorescent label (Figure S7) and the choice between these probes was only based on the availability of the particular probe. […]
The displacement data were fitted to the previously described [40, 42] exact model of competitive binding (further explained in Appendix A) to determine KD and KD^app values, which were used as concentration- and probe-independent quantities to evaluate the deactivation efficiencies of the novel compounds.
The fluorescence intensity (FI), fluorescence anisotropy (FA), and time gated photoluminescence intensity (TGLI) measurements were performed with a PHERAstar (BMG Labtech) microplate reader. […] The TGLI was recorded for 200 µs after 60 µs delay from the flash-excitation. […]

Data on seven compounds can be found in publication PMC9573699, “Deactivatable Bisubstrate Inhibitors of Protein Kinases” (Molecules, 2022).

Where two headings read alike, the source gives them in different places. Non-standard residues stand in square brackets, D forms with d. Residues, ends and D or L forms follow the SMILES beside them. *: point of attachment. X2 = O=C(CCCCCCCC(=O)*)N1CCN(c2ncnc3[nH]ccc23)CC1

A word on the Kd: it is the concentration at which binding is half-saturated.

In the case of hexa-D-arginine, the inhibitory potency result in the data set with PKAcα [1] is listed as “millimolar”.
As for `N=C(N)NCCC[C@@H](NC(=O)[C@@H](CCCNC(=N)N)NC(=O)[C@@H](CCCNC(=N)N)NC(=O)[C@@H](CCCNC(=N)N)NC(=O)[C@@H](CCCNC(=N)N)NC(=O)[C@@H](CCCNC(=N)N)NC(=O)OCCSSCCOC(=O)N1CCN(c2ncnc3[nH]ccc23)CC1)C(N)=O` [ARC-2194], in data set [2] (100 µM), the “time to quantitative conversion of parent compound to 1a” value is “less than 1 min”. The “Δaopt (dynamic range of activity change of the enzyme)” value in the data set on PKAcα [3] was 98%.
With `O=S(=O)(NCCNC/C=C/c1ccc(Br)cc1)c1cccc2cnccc12` [Compound H-89], the “influence of TCEP on the displacement curve” value (“influence of TCEP” below) at PKAcα [4] is “not influenced”. Also, the dissociation constant (Kd) on PKAcα [5] (H-89:PKAcα complex) was 9 nM.
As to `O=C(OCCS)N1CCN(c2ncnc3[nH]ccc23)CC1` [Compound 1a], the “fraction converted to 2a” value in data set [2] (after 2 h) is reported as “more than 50%”.
`NC(=O)CCCCCCCC(=O)N1CCN(c2ncnc3[nH]ccc23)CC1` [Compound 11a, 7DP-Pip-Nda-amide] displayed a Kd on PKAcα [4] of 460 ± 210 nM.
For the compound `c1nc(N2CCNCC2)c2cc[nH]c2n1` [Compound 2a, 4-(piperazin-1-yl)-7H-pyrrolo [2,3-d]pyrimidine], at PKAcα [4], the Kd was found to be 550 ± 150 nM and the “influence of TCEP” value is recorded as “not influenced”.
With `N=C(N)NCCC[C@@H](NC(=O)CCCCCCCC(=O)N1CCN(c2ncnc3[nH]ccc23)CC1)C(=O)N[C@H](CCCNC(=N)N)C(=O)N[C@H](CCCNC(=N)N)C(=O)N[C@H](CCCNC(=N)N)C(=O)N[C@H](CCCNC(=N)N)C(=O)N[C@H](CCCNC(=N)N)C(=O)N[C@H](CCCCN)C(N)=O` [ARC-1411] (X2-[dR][dR][dR][dR][dR][dR][dK]-NH2), on PKAcα [4], the “influence of TCEP” value is recorded as “not influenced”. Further, the Kd was 0.003 nM at PKAcα [5] (previously measured affinity) and 0.003 ± 0.001 nM at PKAcα [6].
